Entries after “also recorded” stand apart in the source; their conditions may differ. Structures can show the parent of a compound that is named as a salt.
Assays:
[1] = Calcium Scale Inhibitor Test (NACE test method TM-03-74), calcium carbonate scale; conditions: for Percent Inhibition at 24 Hrs. / Percent Inhibition at 48 Hrs. / Percent Inhibition at 72 Hrs.: 10 ppm based on active acid content; for threshold activity (in words): threshold agent, less than stoichiometric amounts
Protocol: To show the utility of the above compounds as scale inhibitors, the following test was run.
Calcium Scale Inhibitor Test
The compounds were evaluated as scale inhibitors for calcium carbonate scale according to National Association of Corrosion Engineers (NACE) test method TM-03-74. Note the dramatic improvement of the phosphonic acids prepared from the bis(aminoethyl)piperazine and bis(aminopropyl)piperazine compounds of this invention when compared to aminoethylpiperazinetrimethylenephosphonic acid taught in the U.S. patent literature as a good scale inhibition compound.
*ppm based on active acid content

[2] = Titration with standard copper solution in the presence of chrome azurol-S indicator (sequestering/chelating); conditions: titrated with standard copper solution
Description: The compounds of this invention can also function as sequestering/chelating agents. For example, compounds were titrated with standard copper solution in the presence of chrome azurol-S indicator. The compound of Example 9 complexed about one mole of copper per mole of ligand. […] The compound of Example 3 was titrated and found to complex approximately three moles of copper per mole of ligand. The compound can function as either a threshold compound or a chelating agent.

O=C(O)CN(CCN1CCN(CCN(CP(=O)(O)O)CP(=O)(O)O)CC1)CP(=O)(O)O [Example 5]
Percent Inhibition at 24 Hrs. [1]: 96% | Percent Inhibition at 48 Hrs. [1]: 89% | Percent Inhibition at 72 Hrs. [1]: 83%

O=P(O)(O)CN1CCN(CCN(CP(=O)(O)O)CP(=O)(O)O)CC1 [Example A, aminoethylpiperazine trimethylenephosphonic acid, reference compound]
Percent Inhibition at 24 Hrs. [1]: 77% | Percent Inhibition at 48 Hrs. [1]: 65% | Percent Inhibition at 72 Hrs. [1]: 60% | threshold activity (in words) [1]: not have very good threshold activity

O=P(O)(O)CNCCN1CCN(CCN(CP(=O)(O)O)CP(=O)(O)O)CC1 [Example 4]
Percent Inhibition at 24 Hrs. [1]: 97% | Percent Inhibition at 48 Hrs. [1]: 87% | Percent Inhibition at 72 Hrs. [1]: 79%

O=P(O)(O)CN(CCN1CCN(CCN(CP(=O)(O)O)CP(=O)(O)O)CC1)CP(=O)(O)O [Example 3]
copper complexed per mole of ligand [2]: approximately three | Percent Inhibition at 24 Hrs. [1]: 99% | Percent Inhibition at 48 Hrs. [1]: 91% | Percent Inhibition at 72 Hrs. [1]: 89%

O=P(O)(O)CN(CCN1CCN(CCN(CP(=O)(O)O)CP(=O)(O)O)CC1)CC(O)CS(=O)(=O)O (stereo not shown) [Example 6]
Percent Inhibition at 24 Hrs. [1]: 85% | Percent Inhibition at 48 Hrs. [1]: 73% | Percent Inhibition at 72 Hrs. [1]: 75%

O=P(O)(O)CN(CCCN1CCN(CCCN(CP(=O)(O)O)CP(=O)(O)O)CC1)CC(O)CS(=O)(=O)O (stereo not shown) [Example 7]
Percent Inhibition at 24 Hrs. [1]: 92% | Percent Inhibition at 48 Hrs. [1]: 77% | Percent Inhibition at 72 Hrs. [1]: 79%

O=P(O)(O)CN(CCCN1CCN(CCCN(CP(=O)(O)O)CP(=O)(O)O)CC1)CP(=O)(O)O [Example 1, completely phosphonomethylated bis(aminopropyl)piperazine]
Percent Inhibition at 24 Hrs. [1]: 99% | Percent Inhibition at 48 Hrs. [1]: 93% | Percent Inhibition at 72 Hrs. [1]: 90%

O=C(O)CN(CCN1CCN(CCN(CC(=O)O)CC(=O)O)CC1)CC(=O)O [Example 9, tetrasodium salt of bis(aminoethyl)piperazine-tetraacetic acid]
copper complexed per mole of ligand [2]: about one | Percent Inhibition at 24 Hrs. [1]: 55% | Percent Inhibition at 48 Hrs. [1]: 51% | Percent Inhibition at 72 Hrs. [1]: 50% | threshold activity (in words) [1]: not a good threshold compound; also recorded: ineffective as a threshold compound

CC(O)CN(CCN1CCN(CCN(CP(=O)(O)O)CP(=O)(O)O)CC1)CP(=O)(O)O (stereo not shown) [Example 8]
Percent Inhibition at 24 Hrs. [1]: 79% | Percent Inhibition at 48 Hrs. [1]: 77% | Percent Inhibition at 72 Hrs. [1]: 73%

O=P(O)(O)CNCCCN1CCN(CCCN(CP(=O)(O)O)CP(=O)(O)O)CC1 [Example 2]
Percent Inhibition at 24 Hrs. [1]: 99% | Percent Inhibition at 48 Hrs. [1]: 93% | Percent Inhibition at 72 Hrs. [1]: 91%

— US4680396A, “Bis(aminoalkyl)piperazine derivatives and their use as metal ion control agents” (The Dow Chemical Company, priority 1984, dated 1987)
